For the assay, the system named is mice, LPC-1 plasma cell tumor ip, median survival T/C. The assay is described as follows: NCI In Vivo Anticancer Drug Screen. Data for tumor model Lieberman Plasma Cell No. 1 (LPC-1) (intraperitoneal) in unknown mice. The following applies: endpoint: median survival time, higher = longer survival. Here is the method:
The antitumor activity of compounds was measured in mice bearing transplantable tumors. Survival or tumor size were measured and the results are expressed as the measurement made in the treated group (T) divided by the measurement made in the vehicle treated control group (C). The tumor model used in this assay is Lieberman Plasma Cell No. 1 (LPC-1) (intraperitoneal) in unknown mice

Toxic doses and inconclusive results are not listed.

On to `CCOC(=O)c1c[nH]c2ccc(N(CCCl)CCCl)cc12`, for which the T/C is, setting by setting: (dose: 23.0 mg/kg/injection, schedule: Q01DX028 (sc), vehicle: carboxymethylcellulose (CMC)) 112 % of control; (dose: 39.0 mg/kg/injection, schedule: Q01DX028 (sc), vehicle: carboxymethylcellulose (CMC)) 110 % of control; (dose: 65.0 mg/kg/injection, schedule: Q01DX028 (sc), vehicle: carboxymethylcellulose (CMC)) 89 % of control; (dose: 108.0 mg/kg/injection, schedule: Q01DX015 (sc), vehicle: carboxymethylcellulose (CMC)) 97 % of control; (dose: 108.0 mg/kg/injection, schedule: Q01DX028 (sc), vehicle: carboxymethylcellulose (CMC)) 87 % of control.

Take `O=c1[nH]cc(F)c(=O)[nH]1`: the T/C is 122 % of control (dose: 2.0 mg/kg/injection, schedule: Q01DX028 (sc), vehicle: saline); 109 % of control (dose: 3.0 mg/kg/injection, schedule: Q01DX024 (sc), vehicle: saline); 155 % of control (dose: 4.0 mg/kg/injection, schedule: Q01DX028 (sc), vehicle: saline); 105 % of control (dose: 5.8 mg/kg/injection, schedule: Q01DX001 (sc), vehicle: saline); 100 % of control (dose: 5.8 mg/kg/injection, schedule: Q01DX002 (sc), vehicle: saline); 112 % of control (dose: 5.8 mg/kg/injection, schedule: Q01DX003 (sc), vehicle: saline). The T/C is, setting by setting: (dose: 5.8 mg/kg/injection, schedule: Q01DX004 (sc), vehicle: saline) 110 % of control; (dose: 6.0 mg/kg/injection, schedule: Q01DX024 (sc), vehicle: saline) 121 % of control; (dose: 6.0 mg/kg/injection, schedule: Q## X008 (sc), vehicle: saline) 104 % of control; (dose: 6.0 mg/kg/injection, schedule: Q## X012 (sc), vehicle: saline) 114 % of control; (dose: 8.0 mg/kg/injection, schedule: Q01DX028 (sc), vehicle: saline) 251 % of control; (dose: 9.6 mg/kg/injection, schedule: Q01DX001 (sc), vehicle: saline) 110 % of control. In addition, the T/C (dose: 9.6 mg/kg/injection, schedule: Q01DX002 (sc), vehicle: saline) was 112 % of control; the T/C (dose: 9.6 mg/kg/injection, schedule: Q01DX003 (sc), vehicle: saline) was 120 % of control; the T/C (dose: 9.6 mg/kg/injection, schedule: Q01DX004 (sc), vehicle: saline) is 112 % of control; the T/C (dose: 12.0 mg/kg/injection, schedule: Q01DX024 (sc), vehicle: saline) was 214 % of control; the T/C (dose: 12.0 mg/kg/injection, schedule: Q## X008 (sc), vehicle: saline) is 117 % of control; the T/C (dose: 12.0 mg/kg/injection, schedule: Q## X012 (sc), vehicle: saline) was 117 % of control. In addition, the T/C (dose: 16.0 mg/kg/injection, schedule: Q01DX001 (sc), vehicle: saline) was 115 % of control; the T/C (dose: 16.0 mg/kg/injection, schedule: Q01DX002 (sc), vehicle: saline) is 117 % of control; the T/C (dose: 16.0 mg/kg/injection, schedule: Q01DX028 (sc), vehicle: saline) is 155 % of control; the T/C (dose: 24.0 mg/kg/injection, schedule: Q## X012 (sc), vehicle: saline) is 156 % of control; the T/C (dose: 26.7 mg/kg/injection, schedule: Q01DX001 (sc), vehicle: saline) is 120 % of control; the T/C (dose: 26.7 mg/kg/injection, schedule: Q01DX002 (sc), vehicle: saline) was 122 % of control. Further, the T/C by setting is: (dose: 26.7 mg/kg/injection, schedule: Q01DX004 (sc), vehicle: saline) 157 % of control; (dose: 32.0 mg/kg/injection, schedule: Q01DX028 (sc), vehicle: saline) 93 % of control; (dose: 44.5 mg/kg/injection, schedule: Q01DX003 (sc), vehicle: saline) 107 % of control; (dose: 44.5 mg/kg/injection, schedule: Q01DX004 (sc), vehicle: saline) 120 % of control; (dose: 48.0 mg/kg/injection, schedule: Q01DX024 (sc), vehicle: saline) 102 % of control; (dose: 96.0 mg/kg/injection, schedule: Q## X008 (sc), vehicle: saline) 95 % of control. The T/C (dose: 96.0 mg/kg/injection, schedule: Q## X012 (sc), vehicle: saline) was 90 % of control.

As for `O=c1ccc2ccc(O)cc2o1`, the T/C is 102 % of control (dose: 266.0 mg/kg/injection, schedule: Q01DX028 (sc), vehicle: carboxymethylcellulose (CMC)); 97 % of control (dose: 400.0 mg/kg/injection, schedule: Q01DX028 (sc), vehicle: carboxymethylcellulose (CMC)); 97 % of control (dose: 600.0 mg/kg/injection, schedule: Q01DX028 (sc), vehicle: carboxymethylcellulose (CMC)).

The record behind these values is PubChem BioAssay AID344 (DTP/NCI, 2004).
